Values of other authors in US8158147B2, “Modified release formulations of at least one form of tramadol” (priority 2002, dated 2012).
Read-outs that look alike come from different tables or passages of the source.

What was measured:
osteoarthritis [1] = conditions: Study No. 058; 6 weeks; rofecoxib 12.5 mg, Nabumetone 1500 mg
osteoarthritis [2] = conditions: 12 weeks, celecoxib 100 mg BID, Naproxen 500 mg BID

| Compound | WOMAC pain walking on a flat surface, mean difference vs placebo (osteoarthritis [1]) | LS mean difference in pain VAS change from baseline vs placebo (osteoarthritis [2]; Study No. 020) | LS mean difference in pain VAS change from baseline vs placebo (osteoarthritis [2]; Study No. 054) |
| --- | --- | --- | --- |
| COc1ccc2cc(CCC(C)=O)ccc2c1 [Nabumetone] | 10 mm | – | – |
| COc1ccc2cc([C@H](C)C(=O)O)ccc2c1 [Naproxen] | – | 7.6 mm | 11.2 mm |
| CS(=O)(=O)c1ccc(C2=C(c3ccccc3)C(=O)OC2)cc1 [rofecoxib, Rofecoxib] | 9.0 mm | – | – |
